These results are taken from ChEMBL document CHEMBL2321732, “Synthesis and evaluation of novel 2,3,5-triaryl-4H,2,3,3a,5,6,6a-hexahydropyrrolo[3,4-d]isoxazole-4,6-diones for advanced glycation end product formation inhibitory activity” (Bioorg Med Chem Lett, 2013).

Structures are written as SMILES.

This series is described as follows: Antiglycation activity assessed as inhibition of glucose-mediated advanced glycation end product formation after 30 hrs by fluorescence spectrophotometry in presence of bovine serum albumin. The format is physicochemical.

For the compound `Cc1ccc(N2C(=O)[C@@H]3[C@@H](ON(c4ccccc4)[C@H]3c3ccccc3O)C2=O)cc1`, the concentration for half-maximal inhibition (IC50) – broadly, the concentration that gives 50% inhibition – is 75 µM.

Take `O=C(O)c1ccc(N2C(=O)[C@@H]3[C@@H](ON(c4ccccc4)[C@H]3c3ccccc3O)C2=O)cc1` (relative stereo): the IC50 was determined as 63.9 µM.

`O=C(O)c1ccc(N2C(=O)[C@@H]3[C@@H](ON(c4ccccc4)[C@H]3c3ccccc3Cl)C2=O)cc1` (relative stereo): the IC50 amounted to 127 µM.

`O=C1[C@H]2[C@@H](c3ccccc3Cl)N(c3ccccc3)O[C@H]2C(=O)N1c1ccccc1` (relative stereo): the IC50 was determined as 7.4 µM.

For the compound `O=C1[C@@H]2[C@@H](ON(c3ccccc3)[C@H]2c2ccccc2Cl)C(=O)N1c1ccccc1` (relative stereo), the IC50 was 30.9 µM.

For the compound `Cc1ccc(N2C(=O)[C@H]3[C@@H](c4ccccc4Cl)N(c4ccccc4)O[C@H]3C2=O)cc1` (relative stereo), the IC50 was 7.18 µM.

Turning to `Cc1ccc(N2C(=O)[C@@H]3[C@@H](ON(c4ccccc4)[C@H]3c3ccccc3Cl)C2=O)cc1` (relative stereo), the IC50 worked out at 23.9 µM.

For `COc1ccc(N2C(=O)[C@H]3[C@@H](c4ccccc4Cl)N(c4ccccc4)O[C@H]3C2=O)cc1` (relative stereo), the IC50 was 8.63 µM.

For the compound `COc1ccc(N2C(=O)[C@@H]3[C@@H](ON(c4ccccc4)[C@H]3c3ccccc3Cl)C2=O)cc1` (relative stereo), the half-maximal inhibitory concentration (IC50) came to 24.2 µM.

On to `O=C(O)c1ccc(N2C(=O)[C@H]3[C@@H](c4ccccc4Cl)N(c4ccccc4)O[C@H]3C2=O)cc1` (relative stereo), for which the concentration for half-maximal inhibition (IC50) is 33 µM.

For `O=C1[C@H]2[C@@H](c3ccccc3O)N(c3ccccc3)O[C@H]2C(=O)N1c1ccccc1` (relative stereo), the IC50 was 25.9 µM.

As to `O=C1[C@@H]2[C@@H](ON(c3ccccc3)[C@H]2c2ccccc2O)C(=O)N1c1ccccc1` (relative stereo), the IC50 is 64.8 µM.

As for `Cc1ccc(N2C(=O)[C@H]3[C@@H](c4ccccc4O)N(c4ccccc4)O[C@H]3C2=O)cc1` (relative stereo), the half-maximal inhibitory concentration (IC50) turned out to be 18.8 µM.

Take `COc1ccc(N2C(=O)[C@H]3[C@@H](c4ccccc4O)N(c4ccccc4)O[C@H]3C2=O)cc1` (relative stereo): the IC50 was 26.6 µM.

On to `COc1ccc(N2C(=O)[C@@H]3[C@@H](ON(c4ccccc4)[C@H]3c3ccccc3O)C2=O)cc1` (relative stereo), for which the IC50 turned out to be 90.1 µM.

Consider `O=C(O)c1ccc(N2C(=O)[C@H]3[C@@H](c4ccccc4O)N(c4ccccc4)O[C@H]3C2=O)cc1` (relative stereo), for which the IC50 was found to be 24.4 µM.

Regarding `N=C(N)NN` [PIMAGEDINE], the IC50 came out at 40.5 µM.
